Laboratory results published in PubChem BioAssay (NCI).
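Cells were grown in 96-well plates and exposed to each compound for 48 hours at five concentrations; endpoints were interpolated linearly between bracketing concentrations, or set to the highest concentration if not reached. GI50: concentration for 50% inhibition of growth. TGI denotes the concentration required for complete inhibition of growth.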

Experiments:
Assay in all cases: NCI tumour cell line growth inhibition, 48 h
[1] = system: HT29 colon
[2] = system: NCI-H226 lung
[3] = system: HOP-92 NSCLC
[4] = system: EKVX NSCLC
[5] = system: SR leukemia
[6] = system: NCI-H23 lung
[7] = system: UACC-257 melanoma
[8] = system: COLO 205 colon
[9] = system: SN12C renal
[10] = system: MDA-MB-435

SMILES | TGI [1] | TGI [2] | TGI [3] | TGI [4] | TGI [5] | TGI [6] | TGI [7] | TGI [8] | TGI [9] | GI50 [1] | GI50 [2] | GI50 [3] | GI50 [4] | GI50 [6] | GI50 [7] | GI50 [8] | GI50 [9] | GI50 [10] | TGI [10] | GI50 [5]
CC1(C)CC(=O)C(C(=O)Nc2cccs2)=C(O)C1 | > 100 µM | 86.8 µM | 68.2 µM | > 100 µM | > 100 µM | 95.7 µM | > 100 µM | 33.7 µM | > 100 µM | – | – | – | – | – | – | – | – | – | – | –
CN(C)CCCC1(c2ccc(F)cc2)OCc2cc(-c3csc4ccccc34)ccc21 (stereo not drawn) | 3.46 µM | 3.52 µM | 2.95 µM | 2.89 µM | – | 3.02 µM | 3.49 µM | 3.79 µM | 3.13 µM | 1.55 µM | 1.8 µM | 1.4 µM | 1.51 µM | 1.55 µM | 1.78 µM | 1.73 µM | 1.63 µM | 1.73 µM | 3.19 µM | –
N#Cc1c(CC(=O)O)cc(=O)n2c1[nH]c1ccccc12 | > 100 µM | > 100 µM | – | > 100 µM | > 100 µM | > 100 µM | > 100 µM | > 100 µM | > 100 µM | – | – | – | – | – | – | – | – | – | – | –
CN(C)[C@@H]1C(=O)C(C(=O)NCc2nc3[nH]cnc(=S)c3[nH]2)=C(O)[C@@]2(O)C(=O)C3=C(O)c4c(O)cccc4[C@@](C)(O)[C@H]3C[C@@H]12 | > 100 µM | – | – | > 100 µM | > 100 µM | > 100 µM | > 100 µM | > 100 µM | > 100 µM | 8.45 µM | – | – | > 100 µM | 8.85 µM | > 100 µM | 3.87 µM | 59.9 µM | – | – | 1.92 µM
CCC12C=C(C(=O)OC)N3c4ccccc4C4CCN(CCC1)C2C43 (stereo not drawn) | > 100 µM | 82.5 µM | > 100 µM | > 100 µM | – | > 100 µM | > 100 µM | > 100 µM | > 100 µM | – | – | – | – | – | – | – | – | – | – | –
CNS(=O)(=O)NNS(=O)(=O)c1ccc(C)cc1 | > 100 µM | – | > 100 µM | > 100 µM | > 100 µM | > 100 µM | > 100 µM | > 100 µM | > 100 µM | – | – | – | – | – | – | – | – | – | – | –
CCCCCNC(=O)CCCCCCCCCCCNC(=O)CCCCCCCCCCN1C=CC(=CC=C2C=CC(=O)C=C2)C=C1 | > 100 µM | > 100 µM | 55.1 µM | > 100 µM | > 100 µM | > 100 µM | 88.7 µM | 28.6 µM | > 100 µM | – | – | – | – | – | – | – | – | – | – | –
O=C1c2ccccc2C2(O)N(c3ccccc3)C(=S)N(c3ccccc3)C12O (stereo not drawn) | > 100 µM | > 100 µM | – | > 100 µM | – | > 100 µM | > 100 µM | > 100 µM | > 100 µM | – | – | – | – | – | – | – | – | – | – | –
CC(=O)NC(CCCNC(=O)OCc1ccccc1)C(=O)NCc1ccccc1 (stereo not drawn) | > 100 µM | > 100 µM | > 100 µM | > 100 µM | – | > 100 µM | > 100 µM | > 100 µM | > 100 µM | – | – | – | – | – | – | – | – | – | – | –
ON1CCc2c([nH]c3ccccc23)C1c1ccc(Cl)cc1 (stereo not drawn) | 40.1 µM | 73 µM | 41.1 µM | > 100 µM | > 100 µM | 86.9 µM | > 100 µM | 80.8 µM | 81 µM | – | – | – | – | – | – | – | – | – | – | –
